Measurements reported in patent US7855292B2, “Sulfonamide compounds” (Janssen Pharmaceutica NV, priority 2004, dated 2010).
Structures can show the parent of a compound that is named as a salt.

These compounds were tested against T1, CCK-1 receptor (Homo sapiens, UniProt P32238) (assay: CCK1 binding assay ([125I]-BH-CCK-8S displacement, CHO-K1 membranes)). Details: membranes of CHO-K1 cells stably transfected with the CCK-1 receptor; 20 pM [125I]-BH-CCK-8S; 0.3 μM PD-134,308 present; 60 min at 21±3° C.
T1 construct: expressed in transfected cells; host or cells: CHO-K1
T1 sequence (P32238 1-428): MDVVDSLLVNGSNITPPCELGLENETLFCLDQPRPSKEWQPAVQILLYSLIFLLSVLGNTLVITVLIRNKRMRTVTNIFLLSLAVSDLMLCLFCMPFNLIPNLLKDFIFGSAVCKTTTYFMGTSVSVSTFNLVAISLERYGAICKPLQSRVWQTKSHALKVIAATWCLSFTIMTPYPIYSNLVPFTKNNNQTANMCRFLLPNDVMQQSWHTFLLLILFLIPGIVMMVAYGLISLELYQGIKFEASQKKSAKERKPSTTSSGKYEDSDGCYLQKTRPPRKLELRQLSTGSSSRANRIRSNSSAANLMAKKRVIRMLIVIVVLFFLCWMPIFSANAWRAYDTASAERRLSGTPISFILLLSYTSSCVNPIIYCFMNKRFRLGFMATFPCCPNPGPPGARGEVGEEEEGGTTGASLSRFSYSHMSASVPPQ
Method: 1. CCK1 Assay Development and Data Generation
CHO-K1 cells that had undergone stable transfection with the CCK-1 receptor were grown in DMEM supplemented with L-glutamine (2 mM), penicillin (50 units/mL) and streptomycin (50 μg/mL). Cells were cultured under continuous G418 selection (2 mM) and were harvested using a rubber cell scraper. CHO-K1 cells were sub-cultured a maximum of ten times before being reseeded from the original stocks.
Membranes were prepared from the stably transfected CHO-K1 cells. Frozen cell pellets (−40° C.) were thawed in 14 mL of buffer A (10 mM HEPES, 130 mM NaCl, 4.7 mM KCl, 5 mM MgCl, 1 mM EGTA and 15.4 mg/100 mL bacitracin at pH 7.2), adapted from Harper et al. (Br. J. Pharmacol. 1996, 118:1717-1726). The thawed pellets were homogenized using a Polytron PT-10 (7×1 s). The homogenates were centrifuged for 5 min at 1500 rpm (600×g), and the resulting pellets were discarded. The supernatants were re-centrifuged in order to collect the receptor-membrane pellets (25 min 15,000 rpm; 39,800×g), which were re-suspended in buffer A.
All assays were conducted in 96-well plates (GF/B millipore filter plates) using buffer A, with 0.3 μM PD-134,308, for the dilutions. The CCK-2 receptor ligand was included to eliminate the contribution of this receptor subtype to the binding. For the optimal cell number determination experiments 20 pM [^125I]-BH-CCK-8S (50 μL […] solution) was incubated with a range of cell concentrations ([…] to 12.5×10^5 cells/well) in a total volume of 150 μL. Total binding of [^125I]-BH-CCK-8S was determined in the presence of 15 μL of buffer A. Non-specific binding of [^125I]-BH-CCK-8S was determined in the presence of 15 μL of 100 μM 2-naphthalenesulphonyl L-aspartyl-(2-phenethyl)amide (2-NAP: see R. A. Hull et al. Br. J. Pharmacol. 1993, 108:734-740), a CCK-1 receptor selective antagonist that is structurally unrelated to the radioligand [^125I]-BH-CCK-8S. The assay preparation was incubated for 1 h at 21±3° C., and then the assay was terminated upon rapid filtration of the preparation under reduced pressure. The loaded filters were washed three times using undiluted PBS ([…]), and then the residues were transferred to 5 mL scintillation tubes. Bound radioactivity was determined using a gamma counter (count time=1 min). […] To validate the radioligand concentration and incubation time for the assay, saturation and kinetic binding studies were also conducted (see M. F. Morton, The Pharmacological Characterization of Cholecystokinin Receptors in the Human Gastrointestinal Tract. PhD Thesis, University of London, 2000). […] The assay was then terminated according to the procedure outlined above.
(§1) 3. Data Analysis for CCK1 and CCK2 Binding Assays
The pKi values were determined using the equation of Y.-C. Cheng and W. H. Prusoff (Biochem. Pharmacol., 1973, 22(23):3099-3108):
(§2) [formula] To circumvent problems associated with computer-assisted data analysis of compounds with low affinity, the data obtained in the current study were weighted according to a method described by Morton. In brief, 100% and 0% specific binding were defined independently using total binding and binding obtained in the presence of a high concentration of the reference antagonist, 2-NAP.

CCK1 pKi | SMILES
7.5 | O=C(NCC(c1ccc(Cl)cc1)c1ccc(Cl)cc1)c1ccc(Cl)cc1NS(=O)(=O)c1cccc2nsnc12 [Example 6, 2-(Benzo[1,2,5]thiadiazole-4-sulfonylamino)-N-[2,2-bis-(4-chloro-phenyl)-ethyl]-4-chloro-benzamide]
6.6 | O=C(N[C@@H](Cc1ccc(Cl)c(Cl)c1)C(=O)O)c1ccc(Cl)cc1NS(=O)(=O)c1cccc2nsnc12 [Example 117, (S)-2-[2-(Benzo[1,2,5]thiadiazole-4-sulfonylamino)-4-chloro-benzoylamino]-3-(3,4-dichloro-phenyl)-propionic acid]

Same assay, conditions: membranes of CHO-K1 cells stably transfected with the CCK-1 receptor; 20 pM [125I]-BH-CCK-8S; 0.3 μM PD-134,308 present; 60 min at 21±3° C.; read-out: CCK1 pKi (converted)

Ki [nM] | SMILES
158 | C[C@@H](NC(=O)c1ccc(Cl)cc1NS(=O)(=O)c1cccc2nsnc12)C(O)(c1ccccc1)c1ccccc1 [Example 73, (R)-2-(Benzo[1,2,5]thiadiazole-4-sulfonylamino)-4-chloro-N-(2-hydroxy-1-methyl-2,2-diphenyl-ethyl)-benzamide]

The compounds below were run against T2, CCK2 receptor (Homo sapiens, UniProt P32239) (assay: CCK2 binding assay ([125I]-BH-CCK-8S displacement, HEKZFP membranes)). Details: membranes of doxycycline-induced HEKZFP cells; 20 pM [125I]-BH-CCK-8S; 60 min at 21±3° C.
T2 construct: analyzed for ZFP expression as well as CCK2R induction upon addition of doxycycline to the culture medium; endogenous in cells
T2 sequence (P32239 1-447): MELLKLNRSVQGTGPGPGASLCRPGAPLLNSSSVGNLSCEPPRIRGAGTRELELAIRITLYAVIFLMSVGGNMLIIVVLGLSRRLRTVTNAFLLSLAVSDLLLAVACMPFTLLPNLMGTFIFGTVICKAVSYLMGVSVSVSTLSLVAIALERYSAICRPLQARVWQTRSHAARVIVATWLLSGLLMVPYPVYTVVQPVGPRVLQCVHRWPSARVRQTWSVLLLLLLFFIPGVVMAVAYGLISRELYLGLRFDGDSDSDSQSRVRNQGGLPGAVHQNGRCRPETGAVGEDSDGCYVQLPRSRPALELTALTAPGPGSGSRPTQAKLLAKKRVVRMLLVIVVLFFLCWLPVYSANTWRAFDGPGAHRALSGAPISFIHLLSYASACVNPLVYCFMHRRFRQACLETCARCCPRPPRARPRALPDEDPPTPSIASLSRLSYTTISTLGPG
Method: 2. CCK2 Assay Development and Data Generation
Zinc Finger Proteins (ZFP) specific for the CCK2R gene were identified by Sangamo Biosciences. The ZFP domain was fused with the herpes simplex virus VP16 activation domain, and the fusion protein was subsequently cloned into the pcDNA3 mammalian expression vector (Invitrogen, San Diego, Calif.). […] After 2 weeks of selection in culture medium containing […] Zeocin (Invitrogen), sixty drug-resistant stable clones were isolated and analyzed for ZFP expression as well as CCK2R induction upon addition of doxycycline to the culture medium.
HEKZFP cells were grown in DMEM supplemented with L-glutamine (2 mM), penicillin (50 units/mL) and streptomycin (50 μg/mL) and 10% FBS (v/v).
Membranes were prepared from the HEKZFP cells after induction. […] The thawed pellets were homogenized using a Polytron PT-10 (7×1 s). The homogenates were centrifuged for 5 min at 1500 rpm (600×g), and the resulting pellets were discarded. The supernatants were re-centrifuged in order to collect the receptor-membrane pellets (25 min 15,000 rpm; 39,800×g), which were re-suspended in buffer A.
The assay preparation was incubated for 1 h at 21±3° C., and then the assay was terminated by rapid filtration of the preparation under reduced pressure. The loaded filters were washed three times using undiluted PBS (100 μL), and then 100 μL of scintillation fluid was added to the filter plate. Bound radioactivity was determined using a Topcount (Packard BioScience, Meriden, Conn.) with a count time of 1 min. […] To validate the radioligand concentration and incubation time for the assay, saturation and kinetic binding studies were also conducted (see M. F. Morton, The Pharmacological Characterization of Cholecystokinin Receptors in the Human Gastrointestinal Tract. PhD Thesis, University of London, 2000). […] The assay was then terminated according to the procedure outlined above.
as §1
The pKi values were determined using the equation of Y.-C.
as §2

CCK2 pKi | SMILES
5.9 | O=C(N[C@H](C(=O)O)C(c1ccc(Cl)cc1)c1ccc(Cl)cc1)c1ccc(Cl)cc1NS(=O)(=O)c1cccc2nsnc12 [Example 106, (S)-2-[2-(Benzo[1,2,5]thiadiazole-4-sulfonylamino)-4-chloro-benzoylamino]-3,3-bis-(4-chloro-phenyl)-propionic acid]
8.0 | O=C(N[C@@H](Cc1ccc(F)c(Br)c1)C(=O)O)c1cc(Cl)c(Cl)cc1NS(=O)(=O)c1cccc2nsnc12 [Example 157, (S)-2-[2-(Benzo[1,2,5]thiadiazole-4-sulfonylamino)-4,5-dichloro-benzoylamino]-3-(3-bromo-4-fluoro-phenyl)-propionic acid]

Same assay, conditions: membranes of doxycycline-induced HEKZFP cells; 20 pM [125I]-BH-CCK-8S; 60 min at 21±3° C.; read-out: CCK2 pKi (converted)

Ki [nM] | SMILES
39.8 | O=C(N[C@@H](Cc1ccccc1)C(=O)O)c1ccc(Br)cc1NS(=O)(=O)c1cccc2nsnc12 [Example 25, 2-[2-(Benzo[1,2,5]thiadiazole-4-sulfonylamino)-4-bromo-benzoylamino]-3-phenyl-propionic acid]
31.6 | O=C(N[C@@H](Cc1ccccc1)C(=O)O)c1ccc(I)cc1NS(=O)(=O)c1cccc2nccnc12 [Example 27, 2-[4-Iodo-2-(quinoxaline-5-sulfonylamino)-benzoylamino]-3-phenyl-propionic acid]
79.4 | O=C(N[C@@H](Cc1ccccc1)C(=O)O)c1ccc(I)cc1NS(=O)(=O)c1cccc2scnc12 [Example 28, 2-[2-(Benzothiazole-4-sulfonylamino)-4-iodo-benzoylamino]-3-phenyl-propionic acid]
794 | CN(CCc1ccccn1)C(=O)c1ccc(Cl)cc1NS(=O)(=O)c1cccc2nsnc12 [Example 51, 2-(Benzo[1,2,5]thiadiazole-4-sulfonylamino)-4-chloro-N-methyl-N-(2-pyridin-2-yl-ethyl)-benzamide hydrochloride]
31.6 | N#Cc1cccc(C[C@H](NC(=O)c2ccc(Cl)cc2NS(=O)(=O)c2cccc3nccnc23)C(=O)O)c1 [Example 63, (S)-2-[4-Chloro-2-(quinoxaline-5-sulfonylamino)-benzoylamino]-3-(3-cyano-phenyl)-propionic acid]
31.6 | O=C(N[C@@H](Cc1ccsc1)C(=O)O)c1ccc(Cl)cc1NS(=O)(=O)c1cccc2nsnc12 [Example 77, (S)-2-[2-(Benzo[1,2,5]thiadiazole-4-sulfonylamino)-4-chloro-benzoylamino]-3-thiophen-3-yl-propionic acid]
31.6 | O=C(N[C@@H](Cc1cccc([N+](=O)[O-])c1)C(=O)O)c1ccc(Cl)cc1NS(=O)(=O)c1cccc2nccnc12 [Example 84, (S)-2-[4-Chloro-2-(quinoxaline-5-sulfonylamino)-benzoylamino]-3-(3-nitro-phenyl)-propionic acid]
63.1 | O=C(N[C@@H](Cc1ccc(F)c(F)c1)C(=O)O)c1ccc(Cl)cc1NS(=O)(=O)c1cccc2nccnc12 [Example 85, (S)-2-[4-Chloro-2-(quinoxaline-5-sulfonylamino)-benzoylamino]-3-(3,4-difluoro-phenyl)-propionic acid]
31.6 | N#Cc1ccc(C[C@H](NC(=O)c2ccc(Cl)cc2NS(=O)(=O)c2cccc3nccnc23)C(=O)O)cc1 [Example 86, (S)-2-[4-Chloro-2-(quinoxaline-5-sulfonylamino)-benzoylamino]-3-(4-cyano-phenyl)-propionic acid]
158 | O=C(N[C@@H](Cc1ccsc1)C(=O)O)c1ccc(Cl)cc1NS(=O)(=O)c1cccc2nccnc12 [Example 87, (S)-2-[4-Chloro-2-(quinoxaline-5-sulfonylamino)-benzoylamino]-3-thiophen-3-yl-propionic acid]
